According to PMC6600469, “Synthesis and Biological Evaluation of NH2-Sulfonyl Oseltamivir Analogues as Influenza Neuraminidase Inhibitors” (Molecules, 2019):

How the values were obtained:
[1] = Metabolic stability in human liver microsomes in vitro; details: for Remaining (T = 60 min): human liver microsomes 0.5 mg/mL, 37 °C, 60 min incubation; for half-life: human, liver microsomes
[2] = target: H5N1 neuraminidase (A/Anhui/2005) (Influenza A virus (H5N1), UniProt A0A0C5AGB3); test: biochemical; assay type: biochemical, influenza A H5N1 (A/Anhui/2005); details: for inhibition at 10 µM / inhibition at 100 µM: read-out: inhibition rate against NA from H5N1 subtype
[3] = system: NAs from H5N1 (A/Chicken/China/1220/2012); details: read-out: IC50 against NAs from H5N1; cited from earlier work
neuraminidase = details: cited from earlier work
mutant NAs = details: cited from earlier work

CCC(CC)O[C@@H]1C=C(C(=O)O)C[C@H](NS(C)(=O)=O)[C@H]1NC(C)=O [4a, (3R, 4R, 5S)-4-acetamido-5-(methylsulfonyl)amino-3-(pentan-3-yloxy) cyclohex-1-enecarboxylic acid]
Remaining (T = 60 min) [1]: 101.6% | half-life [1]: > 145 min | inhibition at 10 µM [2]: 73.9% | inhibition at 100 µM [2]: 91.8%

CCC(CC)O[C@@H]1C=C(C(=O)O)C[C@H](NS(=O)(=O)CC)[C@H]1NC(C)=O [4b, (3R, 4R, 5S)-4-acetamido-5-(ethylsulfonyl)amino-3-(pentan-3-yloxy)cyclohex-1-enecarboxylic acid]
melting point: 187.7 to 190 °C | inhibition at 10 µM [2]: 50.3% | inhibition at 100 µM [2]: 85.1%

CCCS(=O)(=O)N[C@H]1CC(C(=O)O)=C[C@@H](OC(CC)CC)[C@@H]1NC(C)=O [4c, (3R, 4R, 5S)-4-acetamido-5-(n-propylsulfonyl)amino-3-(pentan-3-yloxy)cyclohex-1-enecarboxylic acid]
melting point: 196.3 to 198.6 °C | inhibition at 10 µM [2]: 43.2% | inhibition at 100 µM [2]: 56.5%

CCCCS(=O)(=O)N[C@H]1CC(C(=O)O)=C[C@@H](OC(CC)CC)[C@@H]1NC(C)=O [4d, (3R, 4R, 5S)-4-acetamido-5-(n-butylsulfonyl)amino-3-(pentan-3-yloxy) cyclohex-1-enecarboxylic acid]
melting point: 183.3 to 184.4 °C | inhibition at 10 µM [2]: 30.3% | inhibition at 100 µM [2]: 53.5%

CCCCCS(=O)(=O)N[C@H]1CC(C(=O)O)=C[C@@H](OC(CC)CC)[C@@H]1NC(C)=O [4e, (3R, 4R, 5S)-4-acetamido-5-(n-pentylsulfonyl)amino-3-(pentan-3-yloxy)cyclohex-1-enecarboxylic acid]
melting point: 179.1 to 182.8 °C | inhibition at 10 µM [2]: 28.5% | inhibition at 100 µM [2]: 50.5%

CCC(CC)O[C@@H]1C=C(C(=O)O)C[C@H](NS(=O)(=O)C(F)(F)F)[C@H]1NC(C)=O [4f, (3R, 4R, 5S)-4-acetamido-5-((trifluoromethyl)sulfonyl)amino-3-(pentan-3-yloxy)cyclohex-1-enecarboxylic acid]
melting point: 193.1 to 195.4 °C | inhibition at 10 µM [2]: 24.8% | inhibition at 100 µM [2]: 49.7%

CCC(CC)O[C@@H]1C=C(C(=O)O)C[C@H](NS(=O)(=O)c2ccc(NC(C)=O)cc2)[C@H]1NC(C)=O [4g, (3R, 4R, 5S)-4-acetamido-5-((4-(acetamido)pheny)sulfonyl)amino-3-(pentan-3-yloxy)cyclohex-1-enecarboxylic acid]
melting point: 236.7 to 238.6 °C | inhibition rate against NA from H5N1 subtype ([2]; 100 µM): little inhibition

CCC(CC)O[C@@H]1C=C(C(=O)O)C[C@H](NS(=O)(=O)c2ccc(C(F)(F)F)cc2)[C@H]1NC(C)=O [4h, (3R, 4R, 5S)-4-acetamido-5-((4-(trifluoromethyl)phenyl)sulfonyl)amino-3-(pentan-3-yloxy)cyclohex-1-enecarboxylic acid]
inhibition at 10 µM [2]: 40.4% | inhibition at 100 µM [2]: 79.2%

CCC(CC)O[C@@H]1C=C(C(=O)O)C[C@H](NS(=O)(=O)c2ccccc2[N+](=O)[O-])[C@H]1NC(C)=O [4i, (3R, 4R, 5S)-4-acetamido-5-((2-nitrophenyl)sulfonyl)amino-3-(pentan-3-yloxy)cyclohex-1-enecarboxylic acid]
inhibition at 10 µM [2]: 32% | inhibition at 100 µM [2]: 70.1%

CCC(CC)O[C@@H]1C=C(C(=O)O)C[C@H](NS(=O)(=O)c2cccc([N+](=O)[O-])c2)[C@H]1NC(C)=O [4j, (3R, 4R, 5S)-4-acetamido-5-((3-nitrophenyl)sulfonyl)amino-3-(pentan-3-yloxy)cyclohex-1-enecarboxylic acid]
melting point: 114.3 to 115.9 °C | inhibition at 10 µM [2]: 20.3% | inhibition at 100 µM [2]: 33.8%

CCC(CC)O[C@@H]1C=C(C(=O)O)C[C@H](NS(=O)(=O)c2ccc([N+](=O)[O-])cc2)[C@H]1NC(C)=O [4k, (3R, 4R, 5S)-4-acetamido-5-((4-nitrophenyl)sulfonyl)amino-3-(pentan-3-yloxy)cyclohex-1-enecarboxylic acid]
melting point: 187.4 to 189.2 °C | inhibition at 10 µM [2]: 0.5% | inhibition at 100 µM [2]: 38.9%

CCC(CC)O[C@@H]1C=C(C(=O)O)C[C@H](NS(=O)(=O)c2ccccc2N)[C@H]1NC(C)=O [6i, (3R, 4R, 5S)-4-acetamido-5-((2-aminophenyl)sulfonyl)amino-3-(pentan-3-yloxy)cyclohex-1-enecarboxylic acid]
melting point: 161.8 to 164 °C | inhibition at 10 µM [2]: 63.8% | inhibition at 100 µM [2]: 86.6%

CCC(CC)O[C@@H]1C=C(C(=O)O)C[C@H](NS(=O)(=O)c2cccc(N)c2)[C@H]1NC(C)=O [6j, (3R, 4R, 5S)-4-acetamido-5-((3-aminophenyl)sulfonyl)amino-3-(pentan-3-yloxy)cyclohex-1-enecarboxylic acid]
melting point: 177.4 to 178.1 °C | inhibition at 10 µM [2]: 37.3% | inhibition at 100 µM [2]: 52.7%

CCC(CC)O[C@@H]1C=C(C(=O)O)C[C@H](NS(=O)(=O)c2ccc(N)cc2)[C@H]1NC(C)=O [6k, (3R, 4R, 5S)-4-acetamido-5-((4-aminophenyl)sulfonyl)amino-3-(pentan-3-yloxy)cyclohex-1-enecarboxylic acid]
melting point: 176.7 to 181.4 °C | inhibition at 100 µM [2]: 12.5%

CCC(CC)O[C@@H]1C=C(C(=O)O)C[C@H](NCc2ccc(-c3ccccc3)cc2)[C@H]1NC(C)=O [A]
IC50 [3]: 1.9 nM

CCC(CC)O[C@@H]1C=C(C(=O)O)C[C@H](NCc2ccc(-c3cccs3)cc2)[C@H]1NC(C)=O [B]
IC50 [3]: 2.1 nM

CCC(CC)O[C@@H]1CC(C(=O)O)=C[C@H](n2cc(C(O)CC)nn2)[C@H]1NC(C)=O (stereo partly shown) [C]
Ki (neuraminidase): 72 nM

CCC(CC)O[C@@H]1C=C(C(=O)O)C[C@H](NC(C)=O)[C@H]1NC(C)=O [D]
inhibitory activities against mutant NAs (mutant NAs): enhanced inhibitory activities

O=C(O)Cc1ccccc1Nc1c(Cl)cccc1Cl [Diclofenac, diclofenac]
Remaining (T = 60 min) [1]: 1.1% | half-life [1]: 9.2 min

CCC(CC)O[C@@H]1C=C(C(=O)O)C[C@H](N)[C@H]1NC(C)=O [OC, oseltamivir carboxylate, reference compound]
inhibition rate against NA from H5N1 subtype ([2]; 10 µM): 91.0% | inhibition rate against NA from H5N1 subtype ([2]; 100 µM): 95.0%

C[C@]12CC[C@H]3[C@@H](CCC4=CC(=O)CC[C@@]43C)[C@@H]1CC[C@@H]2O [Testosterone, testosterone]
Remaining (T = 60 min) [1]: 3.8% | half-life [1]: 12.5 min
